Where a SMILES comes first, the peptide text is derived from it. [ ]: non-standard residue; d: D form. The star is where a group is joined. Phe(4-NH2) = Nc1ccc(C[C@H](N)C(=O)O)cc1; dPhe(2-Cl) = N[C@H](Cc1ccccc1Cl)C(=O)O; d3Thi = N[C@H](Cc1ccsc1)C(=O)O; Nle = CCCC[C@H](N)C(=O)O; NHiBu = CC(C)CN*

One series can be described thus: Pharmacokinetics in rats after intravenous bolus injection (systemic clearance). Type of series: in vivo. Particulars: rat, plasma, 0.2 mg FB/kg, adult male Sprague-Dawley rats, i.v. bolus, dose 0.20 mg FB/kg, read-out: CL (ml/kg/min) Average. The method in brief:
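Adult male Sprague-Dawley rats (3-4, doubly cannulated) given IV jugular bolus at 0.1-1.0 mg/kg; serial carotid blood to K2EDTA plasma, LC/MS/MS quantitation. CL = dose/kg divided by AUC∞ (noncompartmental, trapezoid); mean ± SD.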
Turning to `CC[C@H](C)[C@H](NC(=O)[C@H](Cc1ccccc1)NC(=O)[C@H](CC(=O)O)NC(=O)[C@H](CCCNC(=N)N)NC(=O)[C@H](C)NC(=O)[C@H](C)NC(=O)[C@H](CC(C)C)NC(=O)[C@H](CC(N)=O)NC(=O)[C@H](CC(=O)O)NC(=O)[C@H](CC(C)C)NC(=O)[C@@H](NC(=O)[C@@H](NC(=O)[C@H](CC(N)=O)NC(=O)[C@H](CCSC)NC(=O)[C@H](CCC(=O)O)NC(=O)[C@H](CC(=O)O)NC(=O)[C@H](CO)NC(=O)[C@H](Cc1ccccc1)NC(=O)[C@H](CO)NC(=O)CNC(=O)[C@H](CC(=O)O)NC(=O)CNC(=O)[C@@H](N)Cc1c[nH]cn1)[C@@H](C)O)[C@@H](C)CC)C(=O)N[C@@H](CC(N)=O)C(=O)N[C@@H](Cc1c[nH]c2ccccc12)C(=O)N[C@@H](CC(C)C)C(=O)N[C@H](C(=O)N[C@@H](CCC(N)=O)C(=O)N[C@H](C(=O)N[C@@H](CCCCN)C(=O)N[C@H](C(=O)N[C@H](C(=O)N[C@@H](CC(=O)O)C(=O)O)[C@@H](C)O)[C@@H](C)CC)[C@@H](C)O)[C@@H](C)CC` [teduglutide, [Gly2]hGLP 2, reference compound], the clearance came out at 9.9 mL/kg/min. Turning to `CCCC[C@H](NC(=O)[C@H](CCC(=O)O)NC(=O)[C@H](CC(=O)O)NC(=O)[C@H](CO)NC(=O)[C@H](Cc1ccccc1)NC(=O)[C@H](CO)NC(=O)CNC(=O)[C@H](CC(=O)O)NC(=O)CNC(=O)[C@@H](N)Cc1c[nH]cn1)C(=O)N[C@H](Cc1ccccc1)C(=O)N[C@H](C(=O)N[C@H](C(=O)N[C@@H](CC(C)C)C(=O)N[C@@H](CC(=O)O)C(=O)N[C@@H](CC(C)C)C(=O)N[C@@H](CC(C)C)C(=O)N[C@@H](C)C(=O)N[C@@H](C)C(=O)N[C@@H](CCCNC(=N)N)C(=O)N[C@@H](CC(=O)O)C(=O)N[C@@H](Cc1ccccc1)C(=O)N[C@H](C(=O)N[C@@H](CC(N)=O)C(=O)N[C@@H](Cc1c[nH]c2ccccc12)C(=O)N[C@@H](CC(C)C)C(=O)N[C@H](C(=O)N[C@@H](CCC(N)=O)C(=O)N[C@H](C(=O)N[C@@H](CCCCN)C(=O)N[C@H](C(=O)N[C@H](C(=O)N[C@@H](CC(=O)O)C(=O)NCC(C)C)[C@@H](C)O)[C@@H](C)CC)[C@@H](C)O)[C@@H](C)CC)[C@@H](C)CC)[C@@H](C)CC)[C@@H](C)O` [Compound 57, [Gly2,Nle10,D-Phe11,Leu16] hGLP-2(1-33)-NH-isobutyl] (H-HGDGSFSDE[Nle][dF]TILDLLAARDFINWLIQTKITD-NHiBu), the clearance amounted to 0.17 mL/kg/min. The same measure, in the same setting: the same measure for `CCCC[C@H](NC(=O)[C@H](CCC(=O)O)NC(=O)[C@H](CC(=O)O)NC(=O)[C@H](CO)NC(=O)[C@H](Cc1ccccc1)NC(=O)[C@H](CO)NC(=O)CNC(=O)[C@H](CC(=O)O)NC(=O)CNC(=O)[C@@H](N)Cc1cnc[nH]1)C(=O)N[C@H](Cc1ccccc1)C(=O)N[C@H](C(=O)N[C@H](C(=O)N[C@@H](CC(C)C)C(=O)N[C@@H](CC(=O)O)C(=O)N[C@@H](CC(C)C)C(=O)N[C@@H](CC(C)C)C(=O)N[C@@H](C)C(=O)N[C@@H](C)C(=O)N[C@@H](CCCNC(=N)N)C(=O)N[C@@H](CC(=O)O)C(=O)N[C@@H](Cc1ccccc1)C(=O)N[C@H](C(=O)N[C@@H](CC(N)=O)C(=O)N[C@@H](Cc1c[nH]c2ccccc12)C(=O)N[C@@H](CC(C)C)C(=O)N[C@H](C(=O)N[C@@H](CCC(N)=O)C(=O)N[C@H](C(=O)N[C@@H](CCCCN)C(=O)N[C@H](C(=O)N[C@H](C(=O)N[C@@H](CC(=O)O)C(=O)NCC)[C@@H](C)O)[C@@H](C)CC)[C@@H](C)O)[C@@H](C)CC)[C@@H](C)CC)[C@@H](C)CC)[C@@H](C)O` [Compound 53, [Gly2,Nle10,D-Phe11,Leu16] hGLP-2(1-33)-NHEt] (H-HGDGSFSDE[Nle][dF]TILDLLAARDFINWLIQTKITD-NHEt): 0.19 mL/kg/min. Same read-out and setting: the figure for `CCCC[C@H](NC(=O)[C@H](CCC(=O)O)NC(=O)[C@H](CC(=O)O)NC(=O)[C@H](CO)NC(=O)[C@H](Cc1ccccc1)NC(=O)[C@H](CO)NC(=O)CNC(=O)[C@H](CC(=O)O)NC(=O)CNC(=O)[C@@H](N)Cc1c[nH]cn1)C(=O)N[C@H](Cc1ccsc1)C(=O)N[C@H](C(=O)N[C@H](C(=O)N[C@@H](CC(C)C)C(=O)N[C@@H](CC(=O)O)C(=O)N[C@@H](CC(N)=O)C(=O)N[C@@H](CC(C)C)C(=O)N[C@@H](C)C(=O)N[C@@H](C)C(=O)N[C@@H](CCCNC(=N)N)C(=O)N[C@@H](CC(=O)O)C(=O)N[C@@H](Cc1ccccc1)C(=O)N[C@H](C(=O)N[C@@H](CC(N)=O)C(=O)N[C@@H](Cc1c[nH]c2ccccc12)C(=O)N[C@@H](CC(C)C)C(=O)N[C@H](C(=O)N[C@@H](CCC(N)=O)C(=O)N[C@H](C(=O)N[C@@H](CCCCN)C(N)=O)[C@@H](C)O)[C@@H](C)CC)[C@@H](C)CC)[C@@H](C)CC)[C@@H](C)O` [Compound 42, [Gly2,Nle10,D-3-Thi11] hGLP-2 (1-30)-NH2] (H-HGDGSFSDE[Nle][d3Thi]TILDNLAARDFINWLIQTK-NH2) is 1.3 mL/kg/min; for `CCCC[C@H](NC(=O)[C@H](CCC(=O)O)NC(=O)[C@H](CC(=O)O)NC(=O)[C@H](CO)NC(=O)[C@H](Cc1ccccc1)NC(=O)[C@H](CO)NC(=O)CNC(=O)[C@H](CC(=O)O)NC(=O)CNC(=O)[C@@H](N)Cc1c[nH]cn1)C(=O)N[C@@H](CC(N)=O)C(=O)N[C@H](C(=O)N[C@H](C(=O)N[C@@H](CC(C)C)C(=O)N[C@@H](CC(=O)O)C(=O)N[C@@H](Cc1ccc(N)cc1)C(=O)N[C@@H](CC(C)C)C(=O)N[C@@H](C)C(=O)N[C@@H](C)C(=O)N[C@@H](CCCNC(=N)N)C(=O)N[C@@H](CC(=O)O)C(=O)N[C@@H](Cc1ccccc1)C(=O)N[C@H](C(=O)N[C@@H](CC(N)=O)C(=O)N[C@@H](Cc1c[nH]c2ccccc12)C(=O)N[C@@H](CC(C)C)C(=O)N[C@H](C(=O)N[C@@H](CCC(N)=O)C(=O)N[C@H](C(=O)N[C@@H](CCCCN)C(N)=O)[C@@H](C)O)[C@@H](C)CC)[C@@H](C)CC)[C@@H](C)CC)[C@@H](C)O` [Compound 24, [Gly2,Nle10,Aph16] hGLP-2 (1-30)-NH2] (H-HGDGSFSDE[Nle]NTILD[Phe(4-NH2)]LAARDFINWLIQTK-NH2) it is 1.9 mL/kg/min; for `CCCC[C@H](NC(=O)[C@H](CCC(=O)O)NC(=O)[C@H](CC(=O)O)NC(=O)[C@H](CO)NC(=O)[C@H](Cc1ccccc1)NC(=O)[C@H](CO)NC(=O)CNC(=O)[C@H](CC(=O)O)NC(=O)CNC(=O)[C@@H](N)Cc1c[nH]cn1)C(=O)N[C@@H](CC(N)=O)C(=O)N[C@H](C(=O)N[C@H](C(=O)N[C@@H](CC(C)C)C(=O)N[C@@H](CC(=O)O)C(=O)N[C@@H](Cc1c[nH]c2ccccc12)C(=O)N[C@@H](CC(C)C)C(=O)N[C@@H](C)C(=O)N[C@@H](C)C(=O)N[C@@H](CCCNC(=N)N)C(=O)N[C@@H](CC(=O)O)C(=O)N[C@@H](Cc1ccccc1)C(=O)N[C@H](C(=O)N[C@@H](CC(N)=O)C(=O)N[C@@H](Cc1c[nH]c2ccccc12)C(=O)N[C@@H](CC(C)C)C(=O)N[C@H](C(=O)N[C@@H](CCC(N)=O)C(=O)N[C@H](C(=O)N[C@@H](CCCCN)C(N)=O)[C@@H](C)O)[C@@H](C)CC)[C@@H](C)CC)[C@@H](C)CC)[C@@H](C)O` [Compound 22, [Gly2,Nle10,Trp16] hGLP-2 (1-30)-NH2] (H-HGDGSFSDE[Nle]NTILDWLAARDFINWLIQTK-NH2) it is 0.5 mL/kg/min.

As for `CCCC[C@H](NC(=O)[C@H](CCC(=O)O)NC(=O)[C@H](CC(=O)O)NC(=O)[C@H](CO)NC(=O)[C@H](Cc1ccccc1)NC(=O)[C@H](CO)NC(=O)CNC(=O)[C@H](CC(=O)O)NC(=O)CNC(=O)[C@@H](N)Cc1c[nH]cn1)C(=O)N[C@H](Cc1ccccc1Cl)C(=O)N[C@H](C(=O)N[C@H](C(=O)N[C@@H](CC(C)C)C(=O)N[C@@H](CC(=O)O)C(=O)N[C@@H](CC(N)=O)C(=O)N[C@@H](CC(C)C)C(=O)N[C@@H](C)C(=O)N[C@@H](C)C(=O)N[C@@H](CCCNC(=N)N)C(=O)N[C@@H](CC(=O)O)C(=O)N[C@@H](Cc1ccccc1)C(=O)N[C@H](C(=O)N[C@@H](CC(N)=O)C(=O)N[C@@H](Cc1c[nH]c2ccccc12)C(=O)N[C@@H](CC(C)C)C(=O)N[C@H](C(=O)N[C@@H](CCC(N)=O)C(=O)N[C@H](C(=O)N[C@@H](CCCCN)C(N)=O)[C@@H](C)O)[C@@H](C)CC)[C@@H](C)CC)[C@@H](C)CC)[C@@H](C)O` [Compound 40, [Gly2,Nle10,D-2-Cpa11] hGLP-2 (1-30)-NH2] (H-HGDGSFSDE[Nle][dPhe(2-Cl)]TILDNLAARDFINWLIQTK-NH2), the clearance was 0.73 mL/kg/min. `CCCC[C@H](NC(=O)[C@H](CCC(=O)O)NC(=O)[C@H](CC(=O)O)NC(=O)[C@H](CO)NC(=O)[C@H](Cc1ccccc1)NC(=O)[C@H](CO)NC(=O)CNC(=O)[C@H](CC(=O)O)NC(=O)CNC(=O)[C@@H](N)Cc1c[nH]cn1)C(=O)N[C@H](Cc1ccccc1)C(=O)N[C@H](C(=O)N[C@H](C(=O)N[C@@H](CC(C)C)C(=O)N[C@@H](CC(=O)O)C(=O)N[C@@H](CC(C)C)C(=O)N[C@@H](CC(C)C)C(=O)N[C@@H](C)C(=O)N[C@H](C(=O)N[C@@H](CCCNC(=N)N)C(=O)N[C@@H](CC(=O)O)C(=O)N[C@@H](Cc1ccccc1)C(=O)N[C@H](C(=O)N[C@@H](CC(N)=O)C(=O)N[C@@H](Cc1c[nH]c2ccccc12)C(=O)N[C@@H](CC(C)C)C(=O)N[C@H](C(=O)N[C@@H](CCC(N)=O)C(=O)N[C@H](C(=O)N[C@@H](CCCCN)C(N)=O)[C@@H](C)O)[C@@H](C)CC)[C@@H](C)CC)[C@@H](C)O)[C@@H](C)CC)[C@@H](C)O` [Compound 52, [Gly2,Nle10,D-Phe11,Leu16,Thr19] hGLP-2(1-30)-NH2] (H-HGDGSFSDE[Nle][dF]TILDLLATRDFINWLIQTK-NH2): the clearance was found to be 0.49 mL/kg/min.

Still in this series, the particulars now being: rat, plasma, adult male Sprague-Dawley rats, i.v. bolus, dose 1.0 mg FB/kg, read-out: CL (ml/kg/min) Average.
Take `CC[C@H](C)[C@H](NC(=O)[C@H](Cc1ccccc1)NC(=O)[C@H](CC(=O)O)NC(=O)[C@H](CCCNC(=N)N)NC(=O)[C@H](C)NC(=O)[C@H](C)NC(=O)[C@H](CC(C)C)NC(=O)[C@H](CC(N)=O)NC(=O)[C@H](CC(=O)O)NC(=O)[C@H](CC(C)C)NC(=O)[C@@H](NC(=O)[C@@H](NC(=O)[C@H](CC(N)=O)NC(=O)[C@H](CCSC)NC(=O)[C@H](CCC(=O)O)NC(=O)[C@H](CC(=O)O)NC(=O)[C@H](CO)NC(=O)[C@H](Cc1ccccc1)NC(=O)[C@H](CO)NC(=O)CNC(=O)[C@H](CC(=O)O)NC(=O)CNC(=O)[C@@H](N)Cc1c[nH]cn1)[C@@H](C)O)[C@@H](C)CC)C(=O)N[C@@H](CC(N)=O)C(=O)N[C@@H](Cc1c[nH]c2ccccc12)C(=O)N[C@@H](CC(C)C)C(=O)N[C@H](C(=O)N[C@@H](CCC(N)=O)C(=O)N[C@H](C(=O)N[C@@H](CCCCN)C(=O)N[C@H](C(=O)N[C@H](C(=O)N[C@@H](CC(=O)O)C(=O)O)[C@@H](C)O)[C@@H](C)CC)[C@@H](C)O)[C@@H](C)CC` [teduglutide, [Gly2]hGLP 2, reference compound]: the clearance stood at 8 mL/kg/min.

(Values after US8580918B2, “Peptidic GLP-2 agonists” (Ferring B.V., priority 2009, dated 2013).)
